A short description of this assay: TR-FRET Assay: To identify novel antagonists of RORgammaT, an assay was developed which employs the interaction of RORgammaT with its co-activator peptide SRC1_2. This peptide mimics the recruitment of co-activators to RORgammaT through its interaction with the LXXLL (SEQ ID NO:1) (e.g., NR box) motifs (Xie et al., J. Immunol. 175: 3800-09, 2005; Kurebayashi et al., Biochem. Biophys. Res. Commun. 315: 919-27, 2004; Jin et al., Mol. Endocrinology 24:923-29, 2010). The RORγ-Ligand Binding Domain TR-FRET Assay was run according to the following protocol.HIS-tagged RORγ-LBD protein was expressed in SF9 cells using a baculovirus expression system. The RORγ-LBD protein was purified by […] chromatography. Separately, SF9 cells not expressing any recombinant protein were lysed and the lysate was added to the purified RORγ-LBD at 0.25 ul lysate (from 10,000 SF9 cells)/nM purified protein. The mixture was then diluted in assay buffer (50 mM Tris pH 7.0, 50 mM KCl, 1 mM EDTA, 0.1 mM DTT) to obtain RORγ-LBD final concentration of 3 nM in 384-well assay plate. Compounds to be tested were injected to the assay plate using Acoustic Droplet Ejection technology by Echo 550 liquid handler (Labcyte, Calif.). A stock of biotinylated-LXXLL peptide from coactivator SRC1 (Biotin-[…]) (SEQ ID NO:2) was prepared in assay buffer and added to each well (100 nM final concentration). […]. (Time-resolved FRET reads energy transfer from a long-lived donor to a nearby acceptor.)

One may read the IC50 as the concentration needed to halve the response being measured. Turning to `CC1(C)CC(c2nn(C(=O)c3c(Cl)cccc3C(F)(F)F)c3cccc(F)c23)=CC[C@H]1C(=O)O`, the IC50 worked out at 343 nM.
With `CC1(C(=O)O)CC=C(c2nn(C(=O)c3c(Cl)cccc3C(F)(F)F)c3cccc(F)c23)CC1` (configuration not stated) the figure was 21 nM.

The record behind these values is ChEMBL document CHEMBL5725235, “3-cyclohexenyl and cyclohexyl substituted indole and indazole compounds as RORgammaT inhibitors and uses thereof” (2016).
